Laboratory results: patent publication US9115073B2, “1,3-diphenylpropane derivatives, preparations and uses thereof” (GENFIT, priority 2011, dated 2015)

Assays:
Assay type in all cases: cell-based
hPPARalpha = target: T1, hPPARalpha (Homo sapiens, UniProt Q07869); experiment: Gal4-hPPARalpha transactivation assay in COS-7 cells (luciferase); conditions: for EC50: Gal4-hPPARα(LBD) transactivation; for Emax: COS-7, maximal relative activation vs reference, read-out: Gal4-hPPARα(LBD) TOP (% ref); for Gal4-hPPARα(LBD) TOP (% ref): maximal relative activation vs reference
T1 construct: Gal4-hPPARα(LBD); Gal4 (fusion partner); expressed in transfected cells; host or cells: COS-7 (monkey kidney)
T1 sequence (Q07869 239-466 limits assumed): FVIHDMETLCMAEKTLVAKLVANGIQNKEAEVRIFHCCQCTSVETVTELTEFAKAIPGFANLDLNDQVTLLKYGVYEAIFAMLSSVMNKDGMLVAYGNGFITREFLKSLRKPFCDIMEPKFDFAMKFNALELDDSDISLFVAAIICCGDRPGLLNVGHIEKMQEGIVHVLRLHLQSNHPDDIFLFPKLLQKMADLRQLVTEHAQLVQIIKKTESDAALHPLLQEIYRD
Procedure: (§1) Monkey kidney COS-7 cells were maintained in standard culture conditions (Dulbecco's modified Eagle's minimal medium: DMEM) supplemented with 10% fetal calf serum, 1% sodium pyruvate, 1% essential amino acids and 1% antibiotics at 37° C. in a humidified atmosphere of 5% C02 and 95% air. The medium was changed every 2 days. All tested compounds were dissolved in DMSO. Cells were transfected using 2 μl JetPEI™ (Polyplus transfection)/μg of DNA. Briefly, 40 μg of DNA was transfected in a 225 cm^2 culture flask of adherent COS-7 cells (respecting the 1/50 ratio between the Gal4(RE)_TkpGL3 plasmid and the plasmid coding the nuclear receptor of interest (pGal4-hPPARalpha, pGal4-hPPARgamma, pGal4-hPPARdelta, pGal4-mPPARalpha, pGal4-mPPARgamma and pGal4-mPPARdelta) or of the pGal4phi plasmid (negative control). Cells were enzymatically detached and seeded in 384 well plates at the density of 20,000 cells/well and then incubated for 4 hours at 37° C. The activation was automatically performed, by using the Genesis Freedom 200™ (Tecan), in fresh medium supplemented with 2% of synthetic serum, free of lipids (Ultroser™, Biosepra) supplemented with the tested compounds (compound of interest or reference molecules) or vehicle (DMSO 0.1%). The luciferase activity was measured with the Steady-Glo Luciferase Assay System (Promega, Madison, Wis.). All transactivation experiments were performed at least 2 times. Activation curves were realized using SigmaPlot® (version 7.0 from SPSS Inc.) software and took into account all the experimental points. SimgaPlot® was also used to fit the standard curves and then determine the specific EC50 values, maximum effect versus reference molecules and Hill slope. The Emax effect of each new ligand is represented as the ratio of the maximal induction (plateau) obtained with the new ligand and the induction obtained with the corresponding reference compound. The reference compounds for PPARalpha, PPARgamma and PPARdelta were fenofibrate (100 μM), rosiglitazone (10 μM) and GW501516 (1 μM).

hPPARgamma = target: T2, hPPARgamma (Homo sapiens, UniProt P37231); experiment: Gal4-hPPARgamma transactivation assay in COS-7 cells (luciferase); conditions: for EC50: Gal4-hPPARγ(LBD) transactivation; for Emax: COS-7, maximal relative activation vs reference, read-out: Gal4-hPPARγ(LBD) TOP (% ref); for Gal4-hPPARγ(LBD) TOP (% ref): maximal relative activation vs reference
T2 construct: Gal4-hPPARγ(LBD); Gal4 (fusion partner); expressed in transfected cells; host or cells: COS-7 (monkey kidney)
T2 sequence (P37231 238-503 limits assumed): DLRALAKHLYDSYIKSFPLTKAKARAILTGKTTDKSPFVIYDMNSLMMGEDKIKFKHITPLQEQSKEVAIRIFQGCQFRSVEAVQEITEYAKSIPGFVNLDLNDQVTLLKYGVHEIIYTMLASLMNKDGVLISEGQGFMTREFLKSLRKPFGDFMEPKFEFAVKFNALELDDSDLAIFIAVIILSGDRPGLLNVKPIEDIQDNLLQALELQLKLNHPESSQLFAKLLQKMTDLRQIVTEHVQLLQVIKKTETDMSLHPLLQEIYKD
Procedure: as §1

hPPARdelta = target: T3, hPPARdelta (Homo sapiens, UniProt Q03181); experiment: Gal4-hPPARdelta transactivation assay in COS-7 cells (luciferase); conditions: for EC50: Gal4-hPPARδ(LBD) transactivation; for Emax: COS-7, maximal relative activation vs reference, read-out: Gal4-hPPARδ(LBD) TOP (% ref); for Gal4-hPPARδ(LBD) TOP (% ref): maximal relative activation vs reference
T3 construct: Gal4-hPPARδ(LBD); Gal4 (fusion partner); expressed in transfected cells; host or cells: COS-7 (monkey kidney)
T3 sequence (Q03181 211-439 limits assumed): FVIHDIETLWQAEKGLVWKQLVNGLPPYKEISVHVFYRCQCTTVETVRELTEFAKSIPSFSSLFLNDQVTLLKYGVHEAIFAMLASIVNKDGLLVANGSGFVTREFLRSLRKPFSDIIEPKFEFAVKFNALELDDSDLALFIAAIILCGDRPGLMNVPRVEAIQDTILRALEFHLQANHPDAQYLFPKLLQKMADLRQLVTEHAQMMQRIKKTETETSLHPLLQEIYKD
Procedure: as §1

An EC50 (hPPARalpha) of 145 nM, an EC50 (hPPARgamma) of 46 nM and an EC50 (hPPARdelta) of 123 nM were found for COC(c1ccc(OC(F)(F)F)cc1)C1CC1c1ccc(OC(C)(C)C(=O)O)c(C(C)C)c1 (single isomer, unassigned) [Cpd 15-2, 2-(2-isopropyl-4-(2-(methoxy(4-(trifluoromethoxy)phenyl)methyl)cyclopropyl)phenoxy)-2-methylpropanoic acid] in this work.
An Emax (hPPARalpha) of 57%, an EC50 (hPPARalpha) of 105 nM and an Emax (hPPARgamma) of 79% were found for COC(c1ccc(SC)cc1)C1CC1c1cc(C)c(OC(C)(C)C(=O)O)c(C)c1 (single isomer, unassigned) [Cpd 3-1, 2-(4-(2-(methoxy(4-(methylthio)phenyl)methyl)cyclopropyl)-2,6-dimethylphenoxy)-2-methylpropanoic acid] in this work. The EC50 (hPPARgamma) was 35 nM, the Emax (hPPARdelta) was 77% and the EC50 (hPPARdelta) was 54 nM.
An EC50 (hPPARalpha) of 90 nM, an EC50 (hPPARgamma) of 3 nM and an EC50 (hPPARdelta) of 13 nM were found for COC(c1ccc(C(F)(F)F)cc1F)C1CC1c1cc(C)c(OC(C)(C)C(=O)O)c(C)c1 (single isomer, unassigned) [Cpd 12-2, 2-(4-(2-(methoxy(2-fluoro-4-(trifluoromethyl)phenyl)methyl)cyclopropyl)-2,6-dimethylphenoxy)-2-methylpropanoic acid] in this work.
An Emax (hPPARalpha) of 44%, an EC50 (hPPARalpha) of 59 nM and an Emax (hPPARgamma) of 84% were found for CCCCCCOc1ccccc1C(OC)C1CC1c1cc(C)c(OC(C)(C)C(=O)O)c(C)c1 (racemic) [Cpd 18-1, 2-(4-(2-((2-(hexyloxy)phenyl)(methoxy)methyl)cyclopropyl)-2,6-dimethylphenoxy)-2-methylpropanoic acid] in this work. It also gave an EC50 (hPPARgamma) of 26 nM, an Emax (hPPARdelta) of 78% and an EC50 (hPPARdelta) of 157 nM.
With CCOC(c1ccc(OC(F)(F)F)cc1)C1CC1c1cc(C)c(OC(C)(C)C(=O)O)c(C)c1 (racemic) [Cpd 10-2, 2-(4-(2-(ethoxy(4-(trifluoromethoxy)phenyl)methyl)cyclopropyl)-2,6-dimethylphenoxy)-2-methylpropanoic acid] the EC50 (hPPARalpha) was 30 nM, the “Gal4-hPPARα(LBD) TOP (% ref)” value (hPPARalpha) was 43 % ref and the EC50 (hPPARgamma) was 39 nM. For the same compound, the EC50 (hPPARdelta) was 24 nM and the “Gal4-hPPARδ(LBD) TOP (% ref)” value (hPPARdelta) was 73 % ref.
In the case of COC(c1ccc(OC(F)(F)F)cc1)C1CC1c1ccc(OC(C)(C)C(=O)O)c(C(C)C)c1 (racemic) [Cpd 15-2, 2-(2-isopropyl-4-(2-(methoxy(4-(trifluoromethoxy)phenyl)methyl)cyclopropyl)phenoxy)-2-methylpropanoic acid], the “Gal4-hPPARα(LBD) TOP (% ref)” value (hPPARalpha) is reported as 31 % ref, the “Gal4-hPPARγ(LBD) TOP (% ref)” value (hPPARgamma) is reported as 69 % ref and the “Gal4-hPPARδ(LBD) TOP (% ref)” value (hPPARdelta) is reported as 96 % ref.
With COC(c1ccc(OC(F)(F)F)cc1)C1CC1c1cc(C)c(OC(C)(C)C(=O)O)c(C)c1 (single isomer, unassigned) [Cpd 14-1-1, 2-(4-(2-(methoxy(4-(trifluoromethoxy)phenyl)methyl)cyclopropyl)-2,6-dimethylphenoxy)-2-methylpropanoic acid] the EC50 (hPPARalpha) was 211 nM, the “Gal4-hPPARα(LBD) TOP (% ref)” value (hPPARalpha; listed as cpd 14-1-1) was 43 % ref and the EC50 (hPPARgamma) was 81 nM. For the same compound, the “Gal4-hPPARγ(LBD) TOP (% ref)” value (hPPARgamma; listed as cpd 14-1-1) was 78 % ref, the EC50 (hPPARdelta) was 27 nM and the “Gal4-hPPARδ(LBD) TOP (% ref)” value (hPPARdelta; listed as cpd 14-1-1) was 67 % ref.
With COC(c1ccc(Br)cc1)C1CC1c1cc(C)c(OC(C)(C)C(=O)O)c(C)c1 (racemic) [Cpd 1-2, 2-(4-(2-(methoxy(4-bromophenyl)methyl)cyclopropyl)-2,6-dimethylphenoxy)-2-methylpropanoic acid] the EC50 (hPPARalpha) was 186 nM, the “Gal4-hPPARα(LBD) TOP (% ref)” value (hPPARalpha) was 33 % ref and the EC50 (hPPARgamma) was 19 nM. The “Gal4-hPPARγ(LBD) TOP (% ref)” value (hPPARgamma) was 77 % ref, the EC50 (hPPARdelta) was 54 nM and the “Gal4-hPPARδ(LBD) TOP (% ref)” value (hPPARdelta) was 83 % ref.
An Emax (hPPARalpha) of 47%, an EC50 (hPPARalpha) of 53 nM and an Emax (hPPARgamma) of 71% were found for COC(c1ccc(C(F)(F)F)cc1F)C1CC1c1cc(C)c(OC(C)(C)C(=O)O)c(C)c1 (single isomer, unassigned) [Cpd 12-1, 2-(4-(2-(methoxy(2-fluoro-4-(trifluoromethyl)phenyl)methyl)cyclopropyl)-2,6-dimethylphenoxy)-2-methylpropanoic acid] in this work. The EC50 (hPPARgamma) was 12 nM, the Emax (hPPARdelta) was 89% and the EC50 (hPPARdelta) was 7 nM.
An Emax (hPPARalpha) of 60%, an EC50 (hPPARalpha) of 32 nM and an EC50 (hPPARgamma) of 25 nM were found for COC(c1ccc(OC(F)(F)F)cc1)C1CC1c1cc(C)c(OC(C)(C)C(=O)O)c(C)c1 (single isomer, unassigned) [Cpd 14-1, 2-(4-(2-(methoxy(4-(trifluoromethoxy)phenyl)methyl)cyclopropyl)-2,6-dimethylphenoxy)-2-methylpropanoic acid] in this work. For the same compound, the EC50 (hPPARdelta) was 7 nM.
With COC(c1ccc(C(F)(F)F)cc1C(F)(F)F)C1CC1c1cc(C)c(OC(C)(C)C(=O)O)c(C)c1 (racemic) [Cpd 16-2, 2-(4-(2-((2,4-bis(trifluoromethyl)phenyl)(methoxy)methyl)cyclopropyl)-2,6-dimethylphenoxy)-2-methylpropanoic acid] the “Gal4-hPPARα(LBD) TOP (% ref)” value (hPPARalpha) was 50 % ref, the “Gal4-hPPARγ(LBD) TOP (% ref)” value (hPPARgamma) was 88 % ref and the “Gal4-hPPARδ(LBD) TOP (% ref)” value (hPPARdelta) was 71 % ref.
Cc1cc(C2CC2C(OCCC2CCCCC2)c2ccc(OC(F)(F)F)cc2)cc(C)c1OC(C)(C)C(=O)O (racemic) [Cpd 6-2, 2-(4-(2-(cyclohexylethyloxy(4-(trifluoromethoxy)phenyl)methyl)cyclopropyl)-2,6-dimethylphenoxy)-2-methylpropanoic acid] was tested, and the EC50 (hPPARalpha) was 26 nM, the “Gal4-hPPARα(LBD) TOP (% ref)” value (hPPARalpha) was 38 % ref and the EC50 (hPPARgamma) was 34 nM. For the same compound, the “Gal4-hPPARγ(LBD) TOP (% ref)” value (hPPARgamma) was 79 % ref, the EC50 (hPPARdelta) was 131 nM and the “Gal4-hPPARδ(LBD) TOP (% ref)” value (hPPARdelta) was 66 % ref.
For COC(c1ccc(SC)cc1)C1CC1c1cc(C)c(OC(C)(C)C(=O)O)c(C)c1 (racemic) [Cpd 3-2, 2-(4-(2-(methoxy(4-(methylthio)phenyl)methyl)cyclopropyl)-2,6-dimethylphenoxy)-2-methylpropanoic acid], the “Gal4-hPPARα(LBD) TOP (% ref)” value (hPPARalpha) was 42 % ref, the “Gal4-hPPARγ(LBD) TOP (% ref)” value (hPPARgamma) was 65 % ref and the “Gal4-hPPARδ(LBD) TOP (% ref)” value (hPPARdelta) was 75 % ref.
An Emax (hPPARalpha) of 40%, an EC50 (hPPARalpha) of 108 nM and an Emax (hPPARgamma) of 80% were found for COC(c1ccc(C(F)(F)F)cc1C(F)(F)F)C1CC1c1cc(C)c(OC(C)(C)C(=O)O)c(C)c1 (single isomer, unassigned) [Cpd 16-1, 2-(4-(2-((2,4-bis(trifluoromethyl)phenyl)(methoxy)methyl)cyclopropyl)-2,6-dimethylphenoxy)-2-methylpropanoic acid] in this work. It also gave an EC50 (hPPARgamma) of 14 nM, an Emax (hPPARdelta) of 60% and an EC50 (hPPARdelta) of 44 nM.
An EC50 (hPPARalpha) of 54 nM, an EC50 (hPPARgamma) of 21 nM and an EC50 (hPPARdelta) of 57 nM were found for CCCCOC(c1ccc(OC(F)(F)F)cc1)C1CC1c1cc(C)c(OC(C)(C)C(=O)O)c(C)c1 (single isomer, unassigned) [Cpd 5-2, 2-(4-(2-(butyloxy(4-(trifluoromethoxy)phenyl)methyl)cyclopropyl)-2,6-dimethylphenoxy)-2-methylpropanoic acid] in this work.
In the case of COC(c1ccc(OC(F)(F)F)cc1)C1CC1c1cc(C)c(OC(C)(C)C(=O)O)c(C)c1 (racemic) [Cpd 14-1, 2-(4-(2-(methoxy(4-(trifluoromethoxy)phenyl)methyl)cyclopropyl)-2,6-dimethylphenoxy)-2-methylpropanoic acid], the “Gal4-hPPARγ(LBD) TOP (% ref)” value (hPPARgamma; listed as cpd 14-1) is reported as 66 % ref and the “Gal4-hPPARδ(LBD) TOP (% ref)” value (hPPARdelta; listed as cpd 14-1) is reported as 81 % ref.
